Consider 40 molecules from patent publication US7829560B2, “1,4-disubstituted naphthalenes as inhibitors of P38 MAP kinase” (Arqule, Inc., priority 2004, dated 2010).

One test deals with T1, p38α (Homo sapiens, UniProt Q16539).
T1 construct: p38 MAP Kinases are recombinant human full-length proteins with an amino-terminal GST fusion; GST (N); purchased Upstate Biotechnology Inc; host or cells: E. coli
Briefly: p38 MAP Kinase assay: inhibition of ATF2 phosphorylation, ELISA. It is filed as biochemical. The settings on record: ATF2 phosphorylation; read-out: [ENZ] P38 ALPHA, IC50, ELISA. An outline of the steps:
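In vitro phosphorylation of ATF2 at Thr69 by recombinant human GST-p38 MAP kinase, read by anti-phospho-ATF2 ELISA at 450 nm. Enzyme and compound pre-incubated 15 min at RT, then 30 min reaction at 37 °C with 40 μM ATP and 1.25 μM ATF2; buffer with or without 1% HSA (Method II or I).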
For orientation: ELISA stands for enzyme-linked immunosorbent assay.

For test [1], the system named is TNFα release from THP-1 cells. Briefly: Inhibition of TNFα release from LPS-stimulated THP-1 cells, ELISA. In kind it is cell-based. The settings on record: Homo sapiens, THP-1, THP-1 cells, read-out: [CELL] THP-1, IC50, TNF ALPHA, ELISA. In short, it runs like this: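 TNFα released into supernatant after 18 h of 10 μg/ml LPS stimulation was quantified by ELISA and IC50 taken as 50% reduction by non-linear regression. THP-1 cells (10^6/ml; medium with 10% FBS, serum-free or 1% HSA) saw compound for 30 min at 37 °C beforehand; final DMSO ≤0.5%.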

Some results are limits rather than exact numbers.

T1 sequence (Q16539 whole entry, the tested form may be a part): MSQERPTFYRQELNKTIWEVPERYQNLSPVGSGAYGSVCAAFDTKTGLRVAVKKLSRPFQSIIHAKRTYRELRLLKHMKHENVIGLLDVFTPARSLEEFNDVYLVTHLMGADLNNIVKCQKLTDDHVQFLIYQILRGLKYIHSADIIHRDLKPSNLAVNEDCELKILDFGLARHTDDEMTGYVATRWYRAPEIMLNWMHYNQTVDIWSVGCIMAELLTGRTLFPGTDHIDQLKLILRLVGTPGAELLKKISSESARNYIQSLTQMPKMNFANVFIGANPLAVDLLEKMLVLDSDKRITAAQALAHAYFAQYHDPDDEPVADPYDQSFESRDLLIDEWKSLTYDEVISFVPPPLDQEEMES

Turning to `CC1CCN(c2cc(F)cc(C(=O)Nc3ccc(OCCN4CCNC(=O)C4)c4ccccc34)c2)CC1` [Compound B197, 3-Fluoro-5-(4-methyl-piperidin-1-yl)-N-{4-[2-(3-oxo-piperazin-1-yl)-ethoxy]-naphthalen-1-yl}-benzamide], the half-inhibitory concentration (IC50) came out at 1.42 µM at p38α and 6.63 µM in test [1].
The matching figures for `O=C1CCN(c2cc(F)cc(C(=O)Nc3ccc(OCCN4CCOCC4)c4ccccc34)c2)CC1` [Compound B198, 3-Fluoro-N-[4-(2-morpholin-4-yl-ethoxy)-naphthalen-1-yl]-5-(4-oxo-piperidin-1-yl)-benzamide]: 1.77 µM and 8.5 µM.
For `O=C(Nc1ccc(OCCN2CCOCC2)c2ccccc12)c1cc(F)cc(N2CCc3ccccc3C2)c1` [Compound B200], in that order: greater than 10 µM and greater than 10 µM.
For `CC1CCCCN1c1cc(F)cc(C(=O)Nc2ccc(OCCN3CCOCC3)c3ccccc23)c1` (centres unmarked) [Compound B201, 3-Fluoro-5-(2-methylpiperidin-1-yl)-N-[4-(2-morpholin-4-ylethoxy)-1-naphthyl]benzamide], in that order: 0.323 µM and 4.73 µM.
On to `O=C(Nc1ccc(OCCN2CCOCC2)c2ccccc12)c1cc(F)cc(N2CCN(c3ccc(F)cc3)CC2)c1` [Compound B203], for which the IC50 (on p38α; in test [1]) was greater than 10 µM each time.
Regarding `O=C(Nc1ccc(OCCN2CCOCC2)c2ccccc12)c1cc(F)cc(F)c1` [Compound B204], the IC50 (at p38α; in test [1]) was greater than 10 µM throughout.
Regarding `CC1CCCC(C)N1c1cc(F)cc(C(=O)Nc2ccc(OCCN3CCOCC3)c3ccccc23)c1` (centres unmarked) [Compound B205, 3-(2,6-Dimethylpiperidin-1-yl)-5-fluoro-N-[4-(2-morpholin-4-ylethoxy)-1-naphthyl]benzamide], the IC50 on p38α was 1.68 µM; in test [1], greater than 10 µM.
The matching figures for `O=C(Nc1ccc(OCCN2CCOCC2)c2ccccc12)c1cc(F)cc(N2CCOCC2)c1` [Compound B206, 3-Fluoro-5-morpholin-4-yl-N-[4-(2-morpholin-4-ylethoxy)-1-naphthyl]benzamide]: 1.02 µM and 4.23 µM.
For `CC(C)(C)CNc1cc(F)cc(C(=O)Nc2ccc(OCCN3CCOCC3)c3ccccc23)c1` [Compound B209, 3-[(2,2-Dimethylpropyl)amino]-5-fluoro-N-[4-(2-morpholin-4-ylethoxy)-1-naphthyl]benzamide], in that order: 0.513 µM and greater than 10 µM.
The matching figures for `CC1CN(c2cc(F)cc(C(=O)Nc3ccc(OCCN4CCOCC4)c4ccccc34)c2)CC(C)O1` (centres unmarked) [Compound B211]: greater than 10 µM and greater than 10 µM.
With `O=C(Nc1ccc(OCCN2CCOCC2)c2ccccc12)c1cc(F)cc(N2Cc3ccccc3C2)c1` [Compound B212], the concentration for half-maximal inhibition (IC50) (on p38α; in test [1]) was greater than 10 µM each time.
In the case of `O=C(Nc1ccc(OCCN2CCOCC2)c2ccccc12)c1cc(F)cc(N2CCC3CCCCC3C2)c1` (centres unmarked) [Compound B213], the IC50 (on p38α; in test [1]) was greater than 10 µM in each case.
Turning to `CC1CCN(c2cc(C(=O)Nc3ccc(OCCN4CCOCC4)c4ccccc34)cc(Cl)n2)CC1` [Compound B218], the figures for the IC50 (on p38α; in test [1]) were 0.876 µM and 3.58 µM, respectively.
The matching figures for `CC1CCC(Oc2cc(F)cc(C(=O)Nc3ccc(OCCN4CCOCC4)c4ccccc34)c2)CC1` (centres unmarked) [Compound B234, 3-Fluoro-5-[(4-methylcyclohexyl)oxy]-N-[4-(2-morpholin-4-ylethoxy)-1-naphthyl]benzamide]: 1.05 µM and 3.19 µM.
For `CC(C)(C)C1CCC(Oc2cc(F)cc(C(=O)Nc3ccc(OCc4ccncc4)c4ccccc34)c2)CC1` (centres unmarked) [Compound B236], in that order: greater than 10 µM and greater than 10 µM.
For `O=C(Nc1ccc(CCCN2CCOCC2)c2ccccc12)c1cc(F)cc(N2CCOCC2)c1` [Compound B240, 3-Fluoro-5-morpholin-4-yl-N-[4-(3-morpholin-4-yl-propyl)-naphthalen-1-yl]-benzamide], in that order: 1.01 µM and 1.01 µM.
For the molecule `O=C(Nc1ccc(NCCN2CCOCC2)c2ccccc12)c1cc(F)cc(N2CCOCC2)c1` [Compound B241], the figures for the IC50 (at p38α; in test [1]) were 8.25 µM and 9.42 µM, respectively.
The matching figures for `O=C(Nc1ccc(NCCN2CCOCC2)c2ccccc12)c1cc(F)cc(N2CCCCC2)c1` [Compound B242]: 2.03 µM and 10.6 µM.
The matching figures for `Cc1cc(COc2ccc(NC(=O)c3cc(F)cc(N4CCC(C)CC4)c3)c3ccccc23)no1` [Compound B243]: greater than 10 µM and greater than 10 µM.
In the case of `O=C(Nc1ccc(OCCN2CCOCC2)c2ncccc12)c1cc(F)cc(N2CCOCC2)c1` [Compound B244], the IC50 (on p38α; in test [1]) was greater than 10 µM throughout.
Take `Cc1cc(F)ccc1-c1cccc(C(=O)Nc2ccc(OCCN3CCOCC3)c3ccccc23)c1` [Compound B245]: the IC50 at p38α is 0.631 µM; in test [1], 1.14 µM.
The matching figures for `O=C(Nc1ccc(Oc2ccnc(NC3CCCC3)n2)c2ccccc12)c1cc(F)cc(N2CCOCC2)c1` [Compound B250, N-(4-{[2-(Cyclopentylamino)pyrimidin-4-yl]oxy}-1-naphthyl)-3-fluoro-5-morpholin-4-ylbenzamide]: 0.0305 µM and 0.042 µM.
Take `CNc1nccc(Oc2ccc(NC(=O)c3cc(F)cc(N4CCOCC4)c3)c3ccccc23)n1` [Compound B251, 3-Fluoro-N-(4-{[2-(methylamino)pyrimidin-4-yl]oxy}-1-naphthyl)-5-morpholin-4-ylbenzamide]: the IC50 was 0.135 µM at p38α and 0.765 µM in test [1].
As to `CC1CCN(c2cc(F)cc(C(=O)Nc3ccc(Oc4ccnc(N5CCOCC5)n4)c4ccccc34)c2)CC1` [Compound B265, 3-Fluoro-5-(4-methylpiperidin-1-yl)-N-{4-[(2-morpholin-4-ylpyrimidin-4-yl)oxy]-1-naphthyl}benzamide], the IC50 at p38α is 5.06 µM; in test [1], 0.765 µM.
Regarding `CC1CCN(c2cc(F)cc(C(=O)Nc3ccc(Oc4ccnc(NC5CCCC5)n4)c4ccccc34)c2)CC1` [Compound B266, N-(4-{[2-(Cyclopentylamino)pyrimidin-4-yl]oxy}-1-naphthyl)-3-fluoro-5-(4-methylpiperidin-1-yl)benzamide], the IC50 at p38α stood at 0.363 µM; in test [1], 0.256 µM.
For `CSc1nccc(Oc2ccc(NC(=O)c3cccc(-c4ccc(F)cc4C)c3)c3ccccc23)n1` [Compound B269, 4′-Fluoro-2′-methyl-biphenyl-3-carboxylic acid [4-(2-methylsulfanylpyrimidin-4-yloxy)-naphthalen-1-yl]-amide], in that order: 0.162 µM and 0.152 µM.
Turning to `O=C(Nc1ccc(OCCN2CCOCC2)c2ccccc12)c1cccc(-c2ccc(C(F)(F)F)cc2)c1` [Compound B271], the IC50 on p38α was greater than 10 µM; in test [1], 4.03 µM.
For `O=C(Nc1ccc(OCCN2CCOCC2)c2ccccc12)c1cccc(-c2ccc3c(c2)OCO3)c1` [Compound B273], in that order: greater than 10 µM and greater than 10 µM.
The matching figures for `CC(=O)c1ccc(-c2cccc(C(=O)Nc3ccc(OCCN4CCOCC4)c4ccccc34)c2)cc1` [Compound B274]: greater than 10 µM and greater than 10 µM.
Regarding `O=C(Nc1ccc(OCCN2CCOCC2)c2ccccc12)c1cccc(-c2ccc(F)c(Cl)c2)c1` [Compound B275], the IC50 on p38α stood at 3.98 µM; in test [1], 3.57 µM.
For `Cc1ccc(-c2cccc(C(=O)Nc3ccc(OCCN4CCOCC4)c4ccccc34)c2)cc1C` [Compound B276], in that order: greater than 10 µM and greater than 10 µM.
The matching figures for `O=C(Nc1ccc(OCCN2CCOCC2)c2ccccc12)c1cccc(-c2ccc(F)cc2)c1` [Compound B277]: 0.777 µM and 1.84 µM.
The matching figures for `O=C(Nc1ccc(OCCN2CCOCC2)c2ccccc12)c1cccc(-c2ccccc2F)c1` [Compound B278, 2′-Fluoro-biphenyl-3-carboxylic acid [4-(2-morpholin-4-yl-ethoxy)-naphthalen-1-yl]-amide]: 0.935 µM and 3.69 µM.
For `CC(=O)c1cccc(-c2cccc(C(=O)Nc3ccc(OCCN4CCOCC4)c4ccccc34)c2)c1` [Compound B279], the IC50 (on p38α; in test [1]) was greater than 10 µM each time.
Turning to `O=C(Nc1ccc(OCCN2CCOCC2)c2ccccc12)c1cccc(-c2cc(F)ccc2F)c1` [Compound B280], the IC50 at p38α came to 5.6 µM; in test [1], 3.52 µM.
Take `C=Cc1ccc(-c2cccc(C(=O)Nc3ccc(OCCN4CCOCC4)c4ccccc34)c2)cc1` [Compound B281]: the IC50 (at p38α; in test [1]) was greater than 10 µM in each case.
For `O=C(Nc1ccc(OCCN2CCOCC2)c2ccccc12)c1cccc(-c2cccc(Cl)c2Cl)c1` [Compound B282], the IC50 came out at 3.67 µM at p38α and 4.77 µM in test [1].
For `O=C(Nc1ccc(OCCN2CCOCC2)c2ccccc12)c1cccc(-c2ccc(Cl)c(Cl)c2)c1` [Compound B283], in that order: greater than 10 µM and greater than 10 µM.
The matching figures for `COc1ccc(-c2cccc(C(=O)Nc3ccc(OCCN4CCOCC4)c4ccccc34)c2)cc1` [Compound B284]: greater than 10 µM and greater than 10 µM.
The matching figures for `N#Cc1ccc(-c2cccc(C(=O)Nc3ccc(OCCN4CCOCC4)c4ccccc34)c2)cc1` [Compound B285]: greater than 10 µM and 9.79 µM.

As a reminder, the IC50 is the concentration needed to halve the response being measured.
